Measured values as given in patent US20250186437A1, “CARBOLINE COMPOUNDS AND USE THEREOF” (PTC Therapeutics, Inc., priority 2021, published 2025).

Test system: MOLM-13 cells
Test: MOLM-13 Cell Proliferation Assay (indicator of DHODH inhibition)
Type: cell-based
Conditions: Homo sapiens, 72 Hours of culture, CellTiter-Glo, no uridine
Method in brief: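 Proliferation readout via CellTiter-Glo luminescence after 72 h compound treatment (37 °C, 5% CO2, 0.5% DMSO) of MOLM-13 cells seeded at 10^4 per well in RPMI 1640/10% FBS, used as a DHODH-inhibition indicator since these cells rely on de novo pyrimidine synthesis.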

SMILES	IC50 [nM]
Cc1ccnc(N2CCc3c([nH]c4cc(F)c(Cl)cc34)C2c2ccc(F)cc2)n1 (stereo not drawn) [Compound 9, 6-chloro-7-fluoro-1-(4-fluorophenyl)-2-(4-methylpyrimidin-2-yl)-2,3,4,9-tetrahydro-1H-pyrido[3,4-b]indole]	35.9
OCCCc1ccc(C2c3[nH]c4cc(F)c(Cl)cc4c3CCN2c2ncc(F)cn2)cc1 (stereo not drawn) [Compound 159, 3-{4-[6-chloro-7-fluoro-2-(5-fluoropyrimidin-2-yl)-2,3,4,9-tetrahydro-1H-pyrido[3,4-b]indol-1-yl]phenyl}propan-1-ol]	27.1
Fc1ccc(C2c3[nH]c4ccc(Cl)cc4c3CCN2c2ncc(Cl)cn2)cc1 (stereo not drawn) [Compound 1, 6-chloro-2-(5-chloropyrimidin-2-yl)-1-(4-fluorophenyl)-2,3,4,9-tetrahydro-1H-pyrido[3,4-b]indole]	31.8
COC(=O)CCc1ccc(C2c3[nH]c4cc(F)c(Cl)cc4c3CCN2c2ncc(F)cn2)cc1 (stereo not drawn) [Compound 165, methyl 3-{4-[6-chloro-7-fluoro-2-(5-fluoropyrimidin-2-yl)-2,3,4,9-tetrahydro-1H-pyrido[3,4-b]indol-1-yl]phenyl}propanoate]	16.7
CC(C)c1ccc(C2c3[nH]c4cc(F)c(Cl)cc4c3CCN2c2ncc(F)cn2)cc1 (stereo not drawn) [Compound 50, 6-chloro-7-fluoro-2-(5-fluoropyrimidin-2-yl)-1-[4-(propan-2-yl)phenyl]-2,3,4,9-tetrahydro-1H-pyrido[3,4-b]indole]	24.7
NS(=O)(=O)c1ccc(C2c3[nH]c4cc(F)c(Cl)cc4c3CCN2c2nccc(C(F)(F)F)n2)cc1 (stereo not drawn) [Compound 115, 4-{6-chloro-7-fluoro-2-[4-(trifluoromethyl)pyrimidin-2-yl]-2,3,4,9-tetrahydro-1H-pyrido[3,4-b]indol-1-yl}benzene-1-sulfonamide]	9.4
Fc1cc2[nH]c3c(c2cc1Cl)CCN(c1ncc(C(F)(F)F)cn1)C3c1cccc(F)c1F (stereo not drawn) [Compound 133, 6-chloro-1-(2,3-difluorophenyl)-7-fluoro-2-[5-(trifluoromethyl)pyrimidin-2-yl]-2,3,4,9-tetrahydro-1H-pyrido[3,4-b]indole]	11.2
Cc1nc(C)nc(N2CCc3c([nH]c4c(O)cc(Cl)cc34)C2c2cnc(N3CCOCC3)nc2)n1 (stereo not drawn) [Compound 370, 6-chloro-2-(4,6-dimethyl-1,3,5-triazin-2-yl)-1-[2-(morpholin-4-yl)pyrimidin-5-yl]-2,3,4,9-tetrahydro-1H-pyrido[3,4-b]indol-8-ol]	8.1
N#Cc1ccnc(N2CCc3c([nH]c4cc(F)c(Cl)cc34)C2c2ccc(C(F)(F)F)cc2)n1 (stereo not drawn) [Compound 121, 2-{6-chloro-7-fluoro-1-[4-(trifluoromethyl)phenyl]-1,3,4,9-tetrahydro-2H-pyrido[3,4-b]indol-2-yl}pyrimidine-4-carbonitrile]	24.6
Cc1ccnc(N2CCc3c([nH]c4ccc(Cl)c(F)c34)C2c2ccc(F)cc2)n1 (stereo not drawn) [Compound 90, 6-chloro-5-fluoro-1-(4-fluorophenyl)-2-(4-methylpyrimidin-2-yl)-2,3,4,9-tetrahydro-1H-pyrido[3,4-b]indole]	29.1
CN1CCN(c2nc(N3CCc4c([nH]c5ccc(Cl)cc45)[C@@H]3c3cnc(N4CCOCC4)nc3)nc(C(F)(F)F)n2)CC1 [Compound 478, (1S)-6-chloro-2-[4-(4-methylpiperazin-1-yl)-6-(trifluoromethyl)-1,3,5-triazin-2-yl]-1-[2-(morpholin-4-yl)pyrimidin-5-yl]-2,3,4,9-tetrahydro-1H-pyrido[3,4-b]indole]	9.5
Fc1ccc(C2c3[nH]c4cc(F)c(Cl)cc4c3CCN2c2nccc(C(F)(F)F)n2)cc1 (stereo not drawn) [Compound 24, 6-chloro-7-fluoro-1-(4-fluorophenyl)-2-[4-(trifluoromethyl)pyrimidin-2-yl]-2,3,4,9-tetrahydro-1H-pyrido[3,4-b]indole]	17.6
NS(=O)(=O)c1ccc(C2c3[nH]c4ccc(Cl)c(F)c4c3CCN2c2nccc(C(F)(F)F)n2)cc1 (stereo not drawn) [Compound 150, 4-{6-chloro-5-fluoro-2-[4-(trifluoromethyl)pyrimidin-2-yl]-2,3,4,9-tetrahydro-1H-pyrido[3,4-b]indol-1-yl}benzene-1-sulfonamide]	8.9

Molecules with a lower IC50, results first:

IC50 [nM]	SMILES
7.3	Fc1cc(-n2ccnc2)ccc1C1c2[nH]c3ccc(Cl)cc3c2CCN1c1nccc(C(F)(F)F)n1 (stereo not drawn) [Compound 275, 6-chloro-1-[2-fluoro-4-(1H-imidazol-1-yl)phenyl]-2-[4-(trifluoromethyl)pyrimidin-2-yl]-2,3,4,9-tetrahydro-1H-pyrido[3,4-b]indole]
6.8	Cc1nc(C)nc(N2CCc3c([nH]c4ccc(Br)cc34)C2c2cnc(N3CCOCC3)nc2)n1 (stereo not drawn) [Compound 299, 6-bromo-2-(4,6-dimethyl-1,3,5-triazin-2-yl)-1-[2-(morpholin-4-yl)pyrimidin-5-yl]-2,3,4,9-tetrahydro-1H-pyrido[3,4-b]indole]
5.7	Oc1ccccc1C1c2[nH]c3ccc(Cl)cc3c2CCN1c1nccc(C(F)(F)F)n1 (stereo not drawn) [Compound 353, 2-{6-chloro-2-[4-(trifluoromethyl)pyrimidin-2-yl]-2,3,4,9-tetrahydro-1H-pyrido[3,4-b]indol-1-yl}phenol]
5.1	Cc1ccc(C2c3[nH]c4ccc(Cl)cc4c3CCN2c2nc(C)nc(C)n2)c(F)c1 (stereo not drawn) [Compound 452, 6-chloro-2-(4,6-dimethyl-1,3,5-triazin-2-yl)-1-(2-fluoro-4-methylphenyl)-2,3,4,9-tetrahydro-1H-pyrido[3,4-b]indole]
4.9	Fc1cnc(N2CCc3c([nH]c4ccc(Cl)c(F)c34)C2c2cnc(N3CCOCC3)nc2)nc1 (stereo not drawn) [Compound 211, 6-chloro-5-fluoro-2-(5-fluoropyrimidin-2-yl)-1-[2-(morpholin-4-yl)pyrimidin-5-yl]-2,3,4,9-tetrahydro-1H-pyrido[3,4-b]indole]
4.1	Cc1ccc(C2c3[nH]c4ccc(Cl)cc4c3CCN2c2nc(C)cc(C)n2)cc1 (stereo not drawn) [Compound 286, 6-chloro-2-(4,6-dimethylpyrimidin-2-yl)-1-(4-methylphenyl)-2,3,4,9-tetrahydro-1H-pyrido[3,4-b]indole]
2.3	N#Cc1nc(N2CCc3c([nH]c4ccc(Cl)cc34)[C@@H]2c2ccc(N3CCOCC3)nc2)ncc1F [Compound 400, 2-{(1S)-6-chloro-1-[6-(morpholin-4-yl)pyridin-3-yl]-1,3,4,9-tetrahydro-2H-pyrido[3,4-b]indol-2-yl}-5-fluoropyrimidine-4-carbonitrile]
2.2	Cc1ccc(C2c3[nH]c4ccc(Cl)c(F)c4c3CCN2c2ncc(F)c(C#N)n2)cc1 (stereo not drawn) [Compound 217, 2-[6-chloro-5-fluoro-1-(4-methylphenyl)-1,3,4,9-tetrahydro-2H-pyrido[3,4-b]indol-2-yl]-5-fluoropyrimidine-4-carbonitrile]
2.2	CN1CCN(c2ccc([C@H]3c4[nH]c5ccc(Cl)cc5c4CCN3c3ncnc(C(F)(F)F)n3)cn2)CC1 [Compound 491, (1S)-6-chloro-1-[6-(4-methylpiperazin-1-yl)pyridin-3-yl]-2-[4-(trifluoromethyl)-1,3,5-triazin-2-yl]-2,3,4,9-tetrahydro-1H-pyrido[3,4-b]indole]
2	Cc1nc(N2CCc3c([nH]c4ccc(Cl)c(F)c34)C2c2cccc(F)c2F)nc(C)c1F (stereo not drawn) [Compound 117, 6-chloro-1-(2,3-difluorophenyl)-5-fluoro-2-(5-fluoro-4,6-dimethylpyrimidin-2-yl)-2,3,4,9-tetrahydro-1H-pyrido[3,4-b]indole]
1.4	FC(F)(F)c1nc(N2CCc3c([nH]c4ccc(-n5nccn5)cc34)[C@@H]2c2cnc(N3CCOCC3)nc2)nc(C(F)(F)F)n1 [Compound 516, (1S)-2-[4,6-bis(trifluoromethyl)-1,3,5-triazin-2-yl]-1-[2-(morpholin-4-yl)pyrimidin-5-yl]-6-(2H-1,2,3-triazol-2-yl)-2,3,4,9-tetrahydro-1H-pyrido[3,4-b]indole]
1.3	Cc1cnn(-c2ccc3[nH]c4c(c3c2)CCN(c2nc(C(F)(F)F)nc(C(F)(F)F)n2)[C@H]4c2ccc(C)c(F)c2F)n1 [Compound 525, (1S)-2-[4,6-bis(trifluoromethyl)-1,3,5-triazin-2-yl]-1-(2,3-difluoro-4-methylphenyl)-6-(4-methyl-2H-1,2,3-triazol-2-yl)-2,3,4,9-tetrahydro-1H-pyrido[3,4-b]indole]
1.2	Cc1ccc([C@H]2c3[nH]c4ccc(Cl)cc4c3CCN2c2nc(C#N)cc(C(F)(F)F)n2)cc1 [Compound 425, 2-[(1S)-6-chloro-1-(4-methylphenyl)-1,3,4,9-tetrahydro-2H-pyrido[3,4-b]indol-2-yl]-6-(trifluoromethyl)pyrimidine-4-carbonitrile]
0.9	Cc1ccc([C@H]2c3[nH]c4ccc(Cl)cc4c3CCN2c2ncc(F)cn2)c(F)c1F [Compound 238, (1S)-6-chloro-1-(2,3-difluoro-4-methylphenyl)-2-(5-fluoropyrimidin-2-yl)-2,3,4,9-tetrahydro-1H-pyrido[3,4-b]indole]
0.6	Cc1ccc([C@H]2c3[nH]c4ccc(Br)cc4c3CCN2c2nc(C(F)(F)F)nc(C(F)(F)F)n2)c(F)c1F [Compound 523, (1S)-2-[4,6-bis(trifluoromethyl)-1,3,5-triazin-2-yl]-6-bromo-1-(2,3-difluoro-4-methylphenyl)-2,3,4,9-tetrahydro-1H-pyrido[3,4-b]indole]
0.6	Cc1nc(C)nc(N2CCc3c([nH]c4ccc(Cl)cc34)C2c2ccc(Br)c(F)c2F)n1 (stereo not drawn) [Compound 283, 1-(4-bromo-2,3-difluorophenyl)-6-chloro-2-(4,6-dimethyl-1,3,5-triazin-2-yl)-2,3,4,9-tetrahydro-1H-pyrido[3,4-b]indole]
0.5	Cc1cc(C#N)nc(N2CCc3c([nH]c4ccc(Cl)c(F)c34)C2c2ccc(C)c(F)c2F)n1 (stereo not drawn) [Compound 232, 2-[6-chloro-1-(2,3-difluoro-4-methylphenyl)-5-fluoro-1,3,4,9-tetrahydro-2H-pyrido[3,4-b]indol-2-yl]-6-methylpyrimidine-4-carbonitrile]
